Experiments:
[1] = Solubility of active compounds in 2-phenylethyl benzoate, determined by GLC; type: physicochemical; details: for Solubility (soluble up to) in 2-phenylethyl benzoate: solvent 2-phenylethyl benzoate, 25° C.
Description: Predetermined weight/weight (w/w) solutions were prepared at 50° C. using a given solvent and Escalol® 517 or Escalol® 567. […] A small seed crystal was added at 25° C. to hasten equilibration. Solubility limits were determined by observation of the amount of solid present, and then more precisely by a GLC method (see Example 15).
5-Chloro-2-(2,4-dichlorophenoxy)phenol (Triclosan) has bacteriostatic properties and is used as a disinfectant and preservative in cosmetic and detergent preparations. It is soluble up to 69% w/w in 2-phenylethyl benzoate, as determined by GLC. Thus, 50% w/w and 60% w/w mixtures were homogeneous solutions at 25° C., but a 70% w/w solution prepared at 70° C. precipitated a small amount of solid when seeded at 25° C. and allowed to stand for 3 days.
An 80% w/w solution prepared from 8.002 g of Triclosan and 2.009 g of 2-phenylethyl benzoate precipitated a significant amount of solid at 25° C. A 23.3-mg sample of the supernatant was dissolved in 1.00 mL of chloroform and 1.00 μL was injected via automatic injector into a GLC instrument. The areas of the 2-phenylethyl benzoate and Triclosan peaks were 9381 and 12953, respectively. The mixture was heated at 70° C. until it was homogeneous, and an 18.2-mg sample was dissolved and injected in the same manner. […] (Note that the amount injected was 3.6 μg+14.6 μg=18.2 μg.) Therefore, under our GLC conditions the response factors were 1240 units/μg and 770 units/μg, respectively. Then, the respective amounts of each component in the supernatant were 9381/1240 =7.6 μg and 12953/770 =16.8 μg, which corresponds to 69% w/w Triclosan.

[2] = Solubility of solid organic sunscreens (Escalol 517, Escalol 567) in various solvents; type: physicochemical; details: solutions prepared at 50° C., stood 1 week at 25° C., seeded
Description: A small seed crystal was added at 25° C. to hasten equilibration.

| Structure (SMILES) | Solubility (soluble up to) in 2-phenylethyl benzoate/N-methylpyrrolidinone (1:1 w/w) ([1]; solvent 2-phenylethyl benzoate/N-methylpyrrolidinone (1:1 w/w)) | Solubility (soluble up to) in 2-phenylethyl benzoate [1] | Solubility of Escalol 517 in the solvent ([2]; solute Escalol 517 (avobenzone)) | Solubility of Escalol 567 in the solvent ([2]; solute Escalol 567 (benzophenone-3)) |
| --- | --- | --- | --- | --- |
| CCCN(CCC)c1c([N+](=O)[O-])cc(C(F)(F)F)c(N)c1[N+](=O)[O-] [Prodiamine, 5-Dipropylamino-α,α,α-trifluoro-4,6-dinitro-o-toluidine] | 24 % w/w | 5 % w/w |  |  |
| Oc1cc(Cl)ccc1Oc1ccc(Cl)cc1Cl [Triclosan, 5-Chloro-2-(2,4-dichlorophenoxy)phenol] |  | 69 % w/w |  |  |
| O=C(OCCc1ccccc1)c1ccccc1C(=O)OCCc1ccccc1 [Di-2-phenylethyl phthalate, di-2-phenylethyl phthalate] |  |  | 30 % w/w | 31 % w/w |

Source: US7166275B2, “Compositions containing phenethyl aryl esters as solubilizing agents for active organic compounds” (ISP Investments Inc., priority 2003, dated 2007)
